Entries after “also recorded” stand apart in the source; their conditions may differ. Each block holds one compound with its values, some of them ahead of it.
How the values were obtained:
[1] = system: factor Xa-protease-activated receptor 2 signaling in TAMs; details: in vivo; cited from earlier work
B16 tumors = assay: B16 subcutaneous (flank) tumor model, mice fed dabigatran etexilate chow; assay type: in vivo, mouse
Experimental: B16 subcutaneous tumor inoculation: B16 cells were grown until confluent and 2×10^6 cells were inoculated subcutaneously into WT, OPN-KI and OPN-KO mice. Mice were monitored daily for tumor growth. Tumor size was measured and volume calculated using the equation (width×width×length)/2. Animals were euthanized using CO2 and blood collected by cardiac puncture and tumors were isolated carefully. Blood was centrifuged at 2500 rpm for 20 min to prepare plasma and stored at −80° C. Tumors were weighed and measured. Part of the tumor was stored in formaldehyde for immunohistochemistry, part of it was frozen and stored at −80° C. for preparation of tumor lysates for OPN ELISAs. […] Animals were monitored daily and sacrificed after 2 weeks.

B16 cells [2] = assay: B16 pulmonary metastasis model, mice fed DE chow; assay type: in vivo, mouse
Experimental: Animals were monitored daily and sacrificed after 2 weeks. […] B16 metastasis model: 0.5×10^6 B16 cells were injected via tail vein into mice. After sacrifice, the lung was isolated and the number of metastatic nodules on surface was counted on both sides, before analyzing the left lobe for melanin determination. The left lobe of lung from each mouse was incubated in 1N NaOH/10% DMSO for 2 hr at 80° C. before centrifugation at 12,000 rpm for 10 min at room temperature. The absorbance at 470 nm of the supernatant was measured and compared to a standard of synthetic melanin (Sigma, St. Louis, MO). Lung was weighed before the start of process and melanin content was expressed as μg/mg protein determined by protein assay of lung tissue.

B16 cells [3] = assay: Cell adhesion assay, B16 cells; assay type: cell-based, mouse; details: wells coated at 20 nM
Experimental: Cell adhesion assay: Wells in 96-well plate was coated with either BSA or different OPN fragments at a concentration of 20 nM in coating buffer (Gibco Life Technologies, Langley, OK) and incubated at 4° C. overnight. The plate was then washed thrice with PBS before blocking with 3% BSA for 1 hr. The cells were washed thrice with 1×HBSS containing 0.2 mM MnCl2. 2×10^6 B16 or RAW cells were added to the wells and incubated at 37° C. for 1 hr. Wells were washed and cells fixed with absolute ethanol for 20 min before staining with 0.1% crystal violet. Cells were washed repeatedly with PBS until no violet color was visible, lysed with 0.5% Triton X-100 and absorbance determined at 570 nm.

B16 cells [4] = assay: Cell migration assay (transwell), B16 cells; assay type: cell-based, mouse; details: 10 nM, 24 hr
Experimental: Cell migration assay: 10^5 B16 cells were placed in the upper chamber of a 6.5 mm transwell with a pore size of 8.0 μm (Sigma, XX). Cells were allowed to settle before the lower chamber was filled with BSA or various OPN fragments (10 nM) in presence of 0.2 mM MnCl2 (Sigma, St Louis, MO) and incubated at 37° C. for 24 hr. Cells that migrated to the lower chamber were centrifuged and resuspended into 90 ul of 1×HBSS (Gibco Life Technologies, Langley, OK) with 10 μl of CCK-8 staining solution (Dojindo Molecular Technologies Inc., Rockville, MD). Cells were incubated for 2 hr before measuring absorbance at 450 nm.

B16 cells [5] = assay: Apoptosis assay (camptothecin, Annexin V), B16 cells; assay type: cell-based, mouse; details: 10 nM, 20 μM camptothecin, 4 hr
Experimental: Apoptosis assay: 1×10^5 B16 cells were cultured in DMEM without serum overnight before addition of 20 μM camptothecin (Abcam, Burlingame, CA) in the presence of BSA or OPN fragments (10 nM). Cells were then incubated for 4 hr before addition of 200 μl of binding buffer. The plate was centrifuged at 400 g for 5 min and supernatant discarded. Annexin V FITC stain (Cayman chemicals, Ann Arbor, MI) was added to the cells and incubated at RT for 10 min in the dark. Cells were centrifuged as described above and 100 μl of binding buffer was added to each cell and fluorescence intensity measured at 485/535 nm (excitation/emission). Apoptotic index was calculated by dividing the camptothecin-treated cells with untreated cells.

[6] = parenteral; particularly limited small cell lung cancers; cited from earlier work
B16 cells [7] = details: in vivo; cited from earlier work
RAW cells = assay: PGE2 assay, RAW cells; assay type: cell-based, mouse; details: 10 nM
Experimental: PGE2 assay: 5×10^5 RAW cells were plated onto 6-well plate in serum free medium with either BSA or various OPN fragments (10 nM). Cells were cultured overnight before collecting the media and determining PGE2 by ELISA (Enzo, Farmingdale, NY).

thrombin = thrombin (Homo sapiens, UniProt P00734); assay: Thrombin treatment of E. coli produced GST-OPN and GST-OPNR153A, SDS-PAGE; assay type: biochemical; details: thrombin 10 nM, time course
Experimental: FIGS. 1A-1D: B16 tumors grow slower in OPN-KO and OPN-KI than WT mice in the flank model. FIG. 1A. Model of OPN cleavages and its functional modulation by thrombin and carboxypeptidase N or B2. OPN-FL=OPN-full length (SEQ ID NO:5); OPN-R=OPN-Arg (SEQ ID NO:6); OPN-L=OPN-Leu (SEQ ID NO:8). DC=dendritic cells. FIG. 1B. Time course of thrombin treatment (10 nM) of E. coli produced GST-OPN and GST-OPNR153A analyzed by SDS-PAGE. FL=full length, NTF=N-terminal fragment, CTF=C-terminal fragment (SEQ ID NO:7). FIG. 1C. Daily determination of B16 tumor volume grown on WT, OPN-KI and OPN-KO mice. FIG. 1D. B16 tumor weight after sacrifice. All data are shown as mean±SEM. Statistical significance was calculated by one-way ANOVA followed by Tukey's multiple comparison test.
The OPN-KI (OPNR153A) mice, similar to OPN-KO mice, were fertile and healthy before challenge, without any phenotypic changes observable in CBC, liver function and kidney function (FIGS. 9 and 10)

[8] = OPN-KI or OPN-KO mice, trend, compared to untreated mice of same genotype
[9] = WT mice, compared to control WT mice, 13 days after inoculation

Compound: O=C(NC[C@H]1CN(c2ccc(N3CCOCC3=O)cc2)C(=O)O1)c1ccc(Cl)s1 [rivaroxaban]
- antitumor immunity (in words) [1]: promote antitumor immunity

Compound: CCCCCCOC(=O)N=C(N)c1ccc(NCc2nc3cc(C(=O)N(CCC(=O)OCC)c4ccccn4)ccc3n2C)cc1 [DE, dabigatran etexilate]
- effect on B16 local tumor growth, weight and volume (in words) (B16 tumors; OPN-KI (and OPN-KO) mice): did not further reduce; also recorded: no effect
- tumor weight after sacrifice (B16 tumors; OPN-KI mice, DE-containing chow, in g): 0.8±0.9
- tumor volume after sacrifice (B16 tumors; OPN-KI mice, DE-containing chow, mean±SEM): 0.73±0.3 cm^3
- B16 tumor growth (in words) (B16 tumors; WT mice): tumor suppression; also recorded: grew slower
- tumor volume after sacrifice (B16 tumors; WT mice, DE-containing chow from 4 days before B16 inoculation until sacrifice, mean±SEM): 1.0±0.2 cm^3
- tumor weight after sacrifice (B16 tumors; WT mice, DE-containing chow, mean±SEM): 1.0 ± 0.2 g
- melanin content of lungs (B16 cells [2]; [8]): decreased
- pulmonary metastases (B16 cells [2]; [8]): fewer
- melanin content of lungs (B16 cells [2]; [9]): reduced
- metastatic nodules/lung (B16 cells [2]; [9]): fewer

Compound: OPN-L: OPN-R with C-terminal arginine removed by CPN or CPB2 (SEQ ID NO:8) (RGDSVVYGL; OPN-L)
- B16 cell adhesion compared to OPN-R (in words) (B16 cells [3]): reduced adhesion
- B16 chemotaxis/migration relative to OPN-FL (in words: significantly increased or not) (B16 cells [4]): not
- reduction of B16 cell apoptosis compared to BSA (B16 cells [5]): ~3 fold

Compound: OPN-FL: recombinant full length osteopontin (SEQ ID NO:5) (RGDSVVYGLRSKSKKFRR; OPN-FL)
- B16 cell migration compared to BSA (in words) (B16 cells [4]): increased migration
- reduction of B16 cell apoptosis compared to BSA (B16 cells [5]): ~3 fold

Compound: heparin
- survival of cancer patients (in words) [6]: survival benefit

Compound: hirudin
- metastasis of B16 cells (in words) (B16 cells [7]): prevented metastasis

Compound: OPN-CTF: C-terminal OPN fragment after thrombin cleavage (SEQ ID NO:7) (SKSKKFRR; OPN-CTF)
- B16 chemotaxis/migration relative to OPN-FL (in words: significantly increased or not) (B16 cells [4]): comparable to OPN-FL
- anti-apoptotic effect on B16 cells (in words) (B16 cells [5]): no anti-apoptotic effect

Compound: OPN-R: thrombin-cleaved OPN N-terminal fragment ending in Arg (SEQ ID NO:6) (RGDSVVYGLR; OPN-R)
- secretion of PGE2 by RAW cells (in words) (RAW cells): significantly enhanced
- B16 cell migration compared to BSA (in words) (B16 cells [4]): increased migration
- reduction of B16 cell apoptosis compared to BSA (B16 cells [5]): ~3 fold

- thrombin cleavage (in words) (thrombin): resistant to thrombin cleavage
Compound: OPNR153A: mutant OPN with arginine in the thrombin cleavage site mutated to alanine (R153A), expressed in E. coli
